Reference: patent US20230048132A1, “CYCLIN-DEPENDENT KINASE INHIBITORS” (SPV THERAPEUTICS INC., priority 2018, published 2023)
Where two headings read alike, the source gives them in different places.

How the values were obtained:
Experiment in all cases: CDK inhibition assay (microfluidic LabChip, IC50 format)
CDK6-CYCLIND3 = molecular target: T1, CDK6-CYCLIND3 (Homo sapiens, UniProt Q00534); assay type: biochemical
T1 construct: purchased Carna

CDK9-CYCLINT1 = molecular target: T2, CDK9-CYCLINT1 (Homo sapiens, UniProt P50750); assay type: biochemical; conditions: read-out: CDK9 CyclinT1 IC50
T2 construct: purchased Carna

CDK7 CyclinH = CDK7 CyclinH (Homo sapiens, UniProt P50613); assay type: biochemical
CDK2-CYCLINA = molecular target: T3, CDK2-CYCLINA (Homo sapiens, UniProt P24941); assay type: biochemical; conditions: read-out: CDK2 CyclinA IC50
T3 construct: purchased Millipore

CDK4-CYCLIND1 = CDK4-CYCLIND1 (Homo sapiens, UniProt P11802)
[1] = Table 4a, read-out: CDK6 CyclinD3 IC50
[2] = Table 4b, lower part, read-out: CDK6 CyclinD3 IC50
[3] = CDK4 CyclinD1 IC50, Table 4b, lower part, a second value in parentheses for some compounds
[4] = CDK4 CyclinD1 IC50, Table 4a, a second value in parentheses for some compounds
[5] = Table 4b, upper part, read-out: CDK6 IC50
[6] = CDK4 IC50, Table 4b, upper part

T1 sequence (Q00534 whole entry): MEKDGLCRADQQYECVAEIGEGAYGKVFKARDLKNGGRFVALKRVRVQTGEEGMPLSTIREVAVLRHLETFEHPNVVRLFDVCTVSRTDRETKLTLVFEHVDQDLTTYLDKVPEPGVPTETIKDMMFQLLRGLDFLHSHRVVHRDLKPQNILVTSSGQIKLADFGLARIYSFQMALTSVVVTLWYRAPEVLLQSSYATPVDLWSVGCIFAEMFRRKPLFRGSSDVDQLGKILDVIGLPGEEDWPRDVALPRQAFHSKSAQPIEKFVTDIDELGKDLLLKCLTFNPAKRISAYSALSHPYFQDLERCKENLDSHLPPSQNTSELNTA
T1 sequence (P30281 whole entry partner): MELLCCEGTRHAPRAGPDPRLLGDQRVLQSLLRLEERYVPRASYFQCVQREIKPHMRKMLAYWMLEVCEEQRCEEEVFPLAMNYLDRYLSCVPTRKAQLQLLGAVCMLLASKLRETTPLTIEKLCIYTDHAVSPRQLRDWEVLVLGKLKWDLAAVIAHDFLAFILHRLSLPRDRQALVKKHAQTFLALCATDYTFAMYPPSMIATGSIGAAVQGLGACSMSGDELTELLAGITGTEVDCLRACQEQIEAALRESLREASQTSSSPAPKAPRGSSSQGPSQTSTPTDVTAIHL
T2 sequence (P50750 whole entry): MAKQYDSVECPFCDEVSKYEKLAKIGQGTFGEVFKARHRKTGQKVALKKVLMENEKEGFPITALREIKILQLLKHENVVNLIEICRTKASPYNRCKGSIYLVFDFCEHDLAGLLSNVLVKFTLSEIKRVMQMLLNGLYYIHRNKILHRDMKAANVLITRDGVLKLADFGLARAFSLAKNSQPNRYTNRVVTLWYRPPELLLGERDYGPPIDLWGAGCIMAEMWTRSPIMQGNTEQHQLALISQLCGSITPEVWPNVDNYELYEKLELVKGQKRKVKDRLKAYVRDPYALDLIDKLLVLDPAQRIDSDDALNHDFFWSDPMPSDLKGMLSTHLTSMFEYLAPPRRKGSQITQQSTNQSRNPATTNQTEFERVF
T2 sequence (O60563 whole entry partner): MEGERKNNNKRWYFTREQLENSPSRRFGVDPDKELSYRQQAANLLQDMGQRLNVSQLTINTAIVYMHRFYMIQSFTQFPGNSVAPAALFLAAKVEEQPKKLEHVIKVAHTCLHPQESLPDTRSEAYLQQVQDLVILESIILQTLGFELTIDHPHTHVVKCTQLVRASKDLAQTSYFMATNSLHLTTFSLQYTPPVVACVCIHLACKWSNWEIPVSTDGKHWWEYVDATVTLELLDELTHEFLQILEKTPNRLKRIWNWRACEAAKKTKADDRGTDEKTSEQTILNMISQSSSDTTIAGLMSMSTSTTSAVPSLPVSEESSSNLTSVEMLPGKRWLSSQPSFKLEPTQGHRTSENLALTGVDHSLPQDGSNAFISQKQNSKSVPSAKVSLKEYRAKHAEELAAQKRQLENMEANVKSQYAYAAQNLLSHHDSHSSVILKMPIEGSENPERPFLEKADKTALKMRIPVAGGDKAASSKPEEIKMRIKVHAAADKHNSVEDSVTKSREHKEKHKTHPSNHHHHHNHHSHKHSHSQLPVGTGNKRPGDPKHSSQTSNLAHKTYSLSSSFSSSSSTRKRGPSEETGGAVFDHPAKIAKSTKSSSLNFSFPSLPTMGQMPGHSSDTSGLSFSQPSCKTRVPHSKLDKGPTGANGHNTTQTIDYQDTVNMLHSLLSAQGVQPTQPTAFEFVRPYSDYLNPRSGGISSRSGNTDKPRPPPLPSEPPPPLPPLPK
CDK4-CYCLIND1, sequence (P11802 whole entry): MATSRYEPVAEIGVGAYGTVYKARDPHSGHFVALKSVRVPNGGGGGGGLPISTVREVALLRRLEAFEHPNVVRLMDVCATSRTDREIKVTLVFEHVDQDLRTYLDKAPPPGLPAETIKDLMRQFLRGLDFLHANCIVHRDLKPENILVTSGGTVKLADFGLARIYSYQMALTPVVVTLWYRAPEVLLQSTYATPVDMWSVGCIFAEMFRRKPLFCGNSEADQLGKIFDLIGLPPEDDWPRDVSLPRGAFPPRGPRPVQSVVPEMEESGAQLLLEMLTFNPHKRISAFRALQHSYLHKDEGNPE
CDK4-CYCLIND1, sequence (P24385 whole entry partner): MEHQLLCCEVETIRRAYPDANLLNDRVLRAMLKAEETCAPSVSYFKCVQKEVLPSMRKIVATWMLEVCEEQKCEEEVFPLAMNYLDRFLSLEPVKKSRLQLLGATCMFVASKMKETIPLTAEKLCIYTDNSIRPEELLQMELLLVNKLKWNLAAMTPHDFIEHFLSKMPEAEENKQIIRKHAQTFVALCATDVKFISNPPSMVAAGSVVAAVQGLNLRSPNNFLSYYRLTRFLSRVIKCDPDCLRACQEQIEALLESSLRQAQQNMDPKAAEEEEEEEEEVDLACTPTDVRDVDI
CDK7 CyclinH, sequence (P50613 whole entry): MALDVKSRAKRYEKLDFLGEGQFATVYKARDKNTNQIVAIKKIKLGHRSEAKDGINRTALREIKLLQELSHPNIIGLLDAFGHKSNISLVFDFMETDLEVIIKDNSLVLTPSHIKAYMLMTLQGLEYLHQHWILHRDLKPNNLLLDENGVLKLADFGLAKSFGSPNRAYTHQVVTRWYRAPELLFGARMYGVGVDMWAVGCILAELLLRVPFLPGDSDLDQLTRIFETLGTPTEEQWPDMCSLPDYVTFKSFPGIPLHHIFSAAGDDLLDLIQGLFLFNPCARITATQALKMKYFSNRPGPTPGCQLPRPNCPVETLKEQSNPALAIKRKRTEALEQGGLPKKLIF
CDK7 CyclinH, sequence (P51946 whole entry partner): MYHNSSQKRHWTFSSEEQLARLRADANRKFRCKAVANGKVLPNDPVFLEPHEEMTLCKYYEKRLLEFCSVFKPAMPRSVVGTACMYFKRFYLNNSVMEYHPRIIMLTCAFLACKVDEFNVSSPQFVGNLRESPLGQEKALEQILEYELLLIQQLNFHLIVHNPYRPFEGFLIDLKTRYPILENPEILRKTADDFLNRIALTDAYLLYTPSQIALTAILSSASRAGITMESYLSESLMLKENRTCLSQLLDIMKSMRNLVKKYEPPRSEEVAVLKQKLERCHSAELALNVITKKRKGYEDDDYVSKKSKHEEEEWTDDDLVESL
CDK7 CyclinH, sequence (P51948 whole entry partner): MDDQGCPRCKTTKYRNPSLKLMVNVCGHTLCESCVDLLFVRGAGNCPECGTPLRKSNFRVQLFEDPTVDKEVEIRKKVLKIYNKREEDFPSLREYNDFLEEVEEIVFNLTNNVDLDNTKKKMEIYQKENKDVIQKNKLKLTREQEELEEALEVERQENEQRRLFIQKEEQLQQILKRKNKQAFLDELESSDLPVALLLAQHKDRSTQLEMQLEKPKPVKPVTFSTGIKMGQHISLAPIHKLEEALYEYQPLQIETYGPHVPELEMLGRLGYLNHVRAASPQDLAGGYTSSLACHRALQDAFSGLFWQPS

SMILES | IC50 (CDK6-CYCLIND3; [1]) [nM] | IC50 (CDK9-CYCLINT1; Table 4a) [nM] | IC50 (CDK7 CyclinH; Table 4a) [nM] | IC50 (CDK2-CYCLINA; Table 4a) [nM] | IC50 (CDK6-CYCLIND3; [2]) [nM] | IC50 (CDK4-CYCLIND1; [3]) [nM] | IC50 (CDK6-CYCLIND3; [5]) [nM] | IC50 (CDK4-CYCLIND1; [6]) [nM] | other results
Cc1cc(Nc2ncc3c(n2)N(C2CCCC2)C(=O)[C@]2(CCNC2=O)C3)ccc1N1CCN(C)CC1 [Example D157, (S)-8-cyclopentyl-2-((3-methyl-4-(4-methylpiperazin-1-yl)phenyl)amino)-5,8-dihydro-7H-spiro[pyrido[2,3-d]pyrimidine-6,3′-pyrrolidine]-2′,7-dione] | 1.51 | 3.67 | 164 | 18.3 | – | – | – | – | IC50 (CDK4-CYCLIND1; [4]): 0.908 nM
CN1CCN(c2ccc(Nc3ncc4c(n3)N(C35CC(C3)C5)C(=O)C3(CCNC3=O)C4)cc2F)CC1 (centres unmarked) [Example D183, 8-(bicyclo[1.1.1]pentan-1-yl)-2-((3-fluoro-4-(4-methylpiperazin-1-yl)phenyl)amino)-5,8-dihydro-7H-spiro[pyrido[2,3-d]pyrimidine-6,3′-pyrrolidine]-2′,7-dione] | – | – | – | – | 66.2 | 22.9 | – | – | IC50 (CDK9-CYCLINT1; Table 4b, lower part): 76.8 nM; IC50 (CDK7 CyclinH; Table 4b, lower part): 2340 nM; IC50 (CDK2-CYCLINA; Table 4b, lower part): 2430 nM
Cc1cc(N2CCNCC2)ccc1Nc1ncc2c(n1)N(C1CCCC1)C(=O)[C@]1(CCNC1=O)C2 [Example D162, (S)-8-cyclopentyl-2-((2-methyl-4-(piperazin-1-yl)phenyl)amino)-5,8-dihydro-7H-spiro[pyrido[2,3-d]pyrimidine-6,3′-pyrrolidine]-2′,7-dione] | 10.4 | 61.9 | 3240 | 382 | – | – | – | – | IC50 (CDK4-CYCLIND1; [4]): 5.34 nM
CN1CCN(c2ccc(Nc3ncc4c(n3)N(C35CC(C3)C5)C(=O)[C@]3(CCNC3=O)C4)cc2)CC1 [Example D186, (S)-8-(bicyclo[1.1.1]pentan-1-yl)-2-((4-(4-methylpiperazin-1-yl)phenyl)amino)-5,8-dihydro-7H-spiro[pyrido[2,3-d]pyrimidine-6,3′-pyrrolidine]-2′,7-dione] | – | – | – | – | 38.7 | 13.9 | – | – | IC50 (CDK9-CYCLINT1; Table 4b, lower part): 61.5 nM; IC50 (CDK7 CyclinH; Table 4b, lower part): 2320 nM; IC50 (CDK2-CYCLINA; Table 4b, lower part): 1490 nM
CN1CCN(c2ccc(Nc3ncc4c(n3)N(C35CC(C3)C5)C(=O)[C@]3(CCNC3=O)C4)cc2F)CC1 [Example D185, (S)-8-(bicyclo[1.1.1]pentan-1-yl)-2-((3-fluoro-4-(4-methylpiperazin-1-yl)phenyl)amino)-5,8-dihydro-7H-spiro[pyrido[2,3-d]pyrimidine-6,3′-pyrrolidine]-2′,7-dione] | – | – | – | – | 31.2 | 15.6 | – | – | IC50 (CDK9-CYCLINT1; Table 4b, lower part): 36.7 nM; IC50 (CDK7 CyclinH; Table 4b, lower part): 1170 nM; IC50 (CDK2-CYCLINA; Table 4b, lower part): 1060 nM
CC(C)N1CCN(c2ccc(Nc3ncc4c(n3)N(C3CCCC3)C(=O)C3(CCN(C)C3=O)C4)cn2)CC1 (centres unmarked) [Example D18, 8-cyclopentyl-2-((6-(4-isopropylpiperazin-1-yl)pyridin-3-yl)amino)-1′-methyl-5,8-dihydro-7H-spiro[pyrido[2,3-d]pyrimidine-6,3′-pyrrolidine]-2′,7-dione] | – | – | – | – | – | – | 166 | 53 | –
COc1cc(N2CCN(C)CC2)ccc1Nc1ncc2c(n1)N(C1CCCC1)C(=O)[C@]1(CCNC1=O)C2 [Example D166, (S)-8-cyclopentyl-2-((2-methoxy-4-(4-methylpiperazin-1-yl)phenyl)amino)-5,8-dihydro-7H-spiro[pyrido[2,3-d]pyrimidine-6,3′-pyrrolidine]-2′,7-dione] | 79.2 | 307 | 13900 | 1860 | – | – | – | – | –
CC(C)N1CCN(c2ccc(Nc3ncc4c(n3)N(C3CCCC3)C(=O)C3(CCNC3=O)C4)c(F)c2)CC1 (centres unmarked) [Example D33, 8-cyclopentyl-2-((2-fluoro-4-(4-isopropylpiperazin-1-yl)phenyl)amino)-5,8-dihydro-7H-spiro[pyrido[2,3-d]pyrimidine-6,3′-pyrrolidine]-2′,7-dione] | – | – | – | – | – | – | 22600 | 9340 | –
O=C1NCCC12Cc1cnc(Nc3ccc(N4CC5(CNC5)C4)cn3)nc1N(C1CCCC1)C2=O (centres unmarked) [Example D41, 2-((5-(2,6-diazaspiro[3.3]heptan-2-yl)pyridin-2-yl)amino)-8-cyclopentyl-5,8-dihydro-7H-spiro[pyrido[2,3-d]pyrimidine-6,3′-pyrrolidine]-2′,7-dione] | – | – | – | – | – | – | 8.79 | 4.61 | –
CC(C)N1CCN(c2ccc(Nc3ncc4c(n3)N(C35CC(C3)C5)C(=O)[C@]3(CCNC3=O)C4)cc2F)CC1 [Example D194, (S)-8-(bicyclo[1.1.1]pentan-1-yl)-2-((3-fluoro-4-(4-isopropylpiperazin-1-yl)phenyl)amino)-5,8-dihydro-7H-spiro[pyrido[2,3-d]pyrimidine-6,3′-pyrrolidine]-2′,7-dione] | – | – | – | – | 31.2 | 17.4 | – | – | –
CN(C)[C@H]1CCN(C(=O)c2ccc(Nc3ncc4c(n3)N(C3CCCC3)C(=O)C3(CCNC3=O)C4)cn2)C1 (stereo partly drawn) [Example D47, 8-cyclopentyl-2-((6-((S)-3-(dimethylamino)pyrrolidine-1-carbonyl)pyridin-3-yl)amino)-5,8-dihydro-7H-spiro[pyrido[2,3-d]pyrimidine-6,3′-pyrrolidine]-2′,7-dione] | – | – | – | – | – | – | 10.6 | 3.37 | –
CN1CCC2(Cc3cnc(Nc4ccc(N5CCNCC5)cc4)nc3N(C3CCCC3)C2=O)C1=O (centres unmarked) [Example D1, 8-cyclopentyl-1′-methyl-2-((4-(piperazin-1-yl)phenyl)amino)-5,8-dihydro-7H-spiro[pyrido[2,3-d]pyrimidine-6,3′-pyrrolidine]-2′,7-dione] | – | – | – | – | – | – | 84.1 | 27 | –
O=C1NCC[C@@]12Cc1cnc(Nc3ccc(-c4cn[nH]c4)cc3)nc1N(C1CCCC1)C2=O [Example D168, (S)-2-((4-(1H-pyrazol-4-yl)phenyl)amino)-8-cyclopentyl-5,8-dihydro-7H-spiro[pyrido[2,3-d]pyrimidine-6,3′-pyrrolidine]-2′,7-dione] | 30 | 6.52 | 3100 | 55.4 | – | – | – | – | –
CN1CCN(c2ccc(Nc3ncc4c(n3)N(C35CC(C3)C5)C(=O)[C@@]3(CCNC3=O)C4)cc2F)CC1 [Example D197, (R)-8-(bicyclo[1.1.1]pentan-1-yl)-2-((3-fluoro-4-(4-methylpiperazin-1-yl)phenyl)amino)-5,8-dihydro-7H-spiro[pyrido[2,3-d]pyrimidine-6,3′-pyrrolidine]-2′,7-dione] | – | – | – | – | 5380 | 2220 | – | – | –

Further lines, with some results ahead:

IC50 (CDK6-CYCLIND3; [1]) [nM] | IC50 (CDK9-CYCLINT1; Table 4a) [nM] | IC50 (CDK7 CyclinH; Table 4a) [nM] | IC50 (CDK2-CYCLINA; Table 4a) [nM] | IC50 (CDK6-CYCLIND3; [2]) [nM] | IC50 (CDK4-CYCLIND1; [3]) [nM] | IC50 (CDK6-CYCLIND3; [5]) [nM] | IC50 (CDK4-CYCLIND1; [6]) [nM] | SMILES | other results
9.37 | 2.92 | 2820 | 33.5 | – | – | – | – | Cn1cc(-c2ccc(Nc3ncc4c(n3)N(C3CCCC3)C(=O)[C@]3(CCNC3=O)C4)cc2)cn1 [Example D169, (S)-8-cyclopentyl-2-((4-(1-methyl-1H-pyrazol-4-yl)phenyl)amino)-5,8-dihydro-7H-spiro[pyrido[2,3-d]pyrimidine-6,3′-pyrrolidine]-2′,7-dione] | –
– | – | – | – | 34200 | 11400 | – | – | CCN1CCN(Cc2ccc(Nc3ncc4c(n3)N(C35CC(C3)C5)C(=O)[C@]3(CCNC3=O)C4)nc2)CC1 [Example D190, (S)-8-(bicyclo[1.1.1]pentan-1-yl)-2-((5-((4-ethylpiperazin-1-yl)methyl)pyridin-2-yl)amino)-5,8-dihydro-7H-spiro[pyrido[2,3-d]pyrimidine-6,3′-pyrrolidine]-2′,7-dione] | IC50 (CDK9-CYCLINT1; Table 4b, lower part): 21800 nM; IC50 (CDK7 CyclinH; Table 4b, lower part): > 100000 nM; IC50 (CDK2-CYCLINA; Table 4b, lower part): > 100000 nM
3.62 | 316 | 18400 | 2440 | – | – | – | – | CN1CCN(c2ccc(Nc3ncc4c(n3)N(C3CCCC3)C(=O)[C@]3(CCNC3=O)C4)nc2)CC1 [Example D153, (S)-8-cyclopentyl-2-((5-(4-methylpiperazin-1-yl)pyridin-2-yl)amino)-5,8-dihydro-7H-spiro[pyrido[2,3-d]pyrimidine-6,3′-pyrrolidine]-2′,7-dione] | IC50 (CDK4-CYCLIND1; [4]): 2.94 nM
4.35 | 2.84 | 266 | 98.7 | – | – | – | – | O=C1NCC[C@@]12Cc1cnc(Nc3ccc(OCCN4CCCC4)c(F)c3)nc1N(C1CCCC1)C2=O [Example D180, (S)-8-cyclopentyl-2-((3-fluoro-4-(2-(pyrrolidin-1-yl)ethoxy)phenyl)amino)-5,8-dihydro-7H-spiro[pyrido[2,3-d]pyrimidine-6,3′-pyrrolidine]-2′,7-dione] | IC50 (CDK4-CYCLIND1; [4]): 1.79 nM
– | – | – | – | – | – | 129 | 28.6 | CC(C)N1CCN(c2ccc(Nc3ncc4c(n3)N(C3CCCC3)C(=O)C3(CC(=O)N(C)C3=O)C4)cc2)CC1 (centres unmarked) [Example D22, 8-cyclopentyl-2-((4-(4-isopropylpiperazin-1-yl)phenyl)amino)-1′-methyl-5,8-dihydro-7H-spiro[pyrido[2,3-d]pyrimidine-6,3′-pyrrolidine]-2′,5′,7-trione] | –
– | – | – | – | – | – | 11.2 | 5.16 | O=C1NCCC12Cc1cnc(Nc3ccc(N4CCNCC4)cc3F)nc1N(C1CCCC1)C2=O (centres unmarked) [Example D32, 8-cyclopentyl-2-((2-fluoro-4-(piperazin-1-yl)phenyl)amino)-5,8-dihydro-7H-spiro[pyrido[2,3-d]pyrimidine-6,3′-pyrrolidine]-2′,7-dione] | –
– | – | – | – | – | – | 15.8 | 7.08 | O=C1NCCC12Cc1cnc(Nc3ccc(OCCN4CCCC4)nc3)nc1N(C1CCCC1)C2=O (centres unmarked) [Example D15, 8-cyclopentyl-2-((6-(2-(pyrrolidin-1-yl)ethoxy)pyridin-3-yl)amino)-5,8-dihydro-7H-spiro[pyrido[2,3-d]pyrimidine-6,3′-pyrrolidine]-2′,7-dione] | –
– | – | – | – | 33.7 | 23 | – | – | CC(C)n1cc(-c2ccc(Nc3ncc4c(n3)N(C3CCCC3)C(=O)[C@]3(CCNC3=O)C4)cc2)cn1 [Example D195, (S)-8-cyclopentyl-2-((4-(1-isopropyl-1H-pyrazol-4-yl)phenyl)amino)-5,8-dihydro-7H-spiro[pyrido[2,3-d]pyrimidine-6,3′-pyrrolidine]-2′,7-dione] | –
